US12686873B2, “Plants having increased tolerance to herbicides” (priority 2012, dated 2026)
Values joined by “and” are separate entries in the source; they are usually repeats but may differ in a detail not shown here. Identical values can stand only once.

Legend:
Soy = experiment: Tolerance rates for soybean (injury score 0-9); conditions: Soy
[1] = system: Chlamydomonas reinhardtii strains; experiment: Selection and dose-response of Chlamydomonas reinhardtii strains
[2] = system: transgenic T1 Arabidopsis plants; experiment: Transgenic T1 Arabidopsis greenhouse tolerance study (injury rating); conditions: SEQ_ID 2 & 4, L397D, F420V

Q: How did the injury score (Soy; 1,5-dimethyl-6-thioxo-3-(...)-1,3,5-triazinane-2,4-dione 12.5 g ai/ha, amino acid substitution F420L, SEQ ID NO 2) turn out when `C#CCN1C(=O)C(F)(F)Oc2cc(F)c(-n3c(=O)n(C)c(=S)n(C)c3=O)cc21` was run?
A: Its injury score is 2 and 1.

Q: And the injury score (Soy; 1,5-dimethyl-6-thioxo-3-(...)-1,3,5-triazinane-2,4-dione 12.5 g ai/ha, amino acid substitution L369D, F392V, SEQ ID NO 40)?
A: The injury score was 8 and 5 and 7 and 6 and 4.

Q: And the injury score (Soy; 1,5-dimethyl-6-thioxo-3-(...)-1,3,5-triazinane-2,4-dione 12.5 g ai/ha, amino acid substitution L397D, F420V, SEQ ID NO 2)?
A: The injury score was 2.

Q: And the injury score (Soy; 1,5-dimethyl-6-thioxo-3-(...)-1,3,5-triazinane-2,4-dione 12.5 g ai/ha, amino acid substitution L397E, SEQ ID NO 2)?
A: Its injury score is 5 and 7 and 6 and 4 and 8.

Q: What about the injury score (Soy; 1,5-dimethyl-6-thioxo-3-(...)-1,3,5-triazinane-2,4-dione 12.5 g ai/ha, amino acid substitution L397Q, SEQ ID NO 2) of the same molecule?
A: Its injury score is 7.

Q: And the injury score (Soy; 1,5-dimethyl-6-thioxo-3-(...)-1,3,5-triazinane-2,4-dione 12.5 g ai/ha, amino acid substitution none, SEQ ID NO 2)?
A: The injury score was 3 and 7 and 6 and 5.

Q: And the injury score (Soy; 1,5-dimethyl-6-thioxo-3-(...)-1,3,5-triazinane-2,4-dione 12.5 g ai/ha, amino acid substitution none, SEQ ID NO 40)?
A: The injury score was 8 and 6 and 7 and 9.

Q: And the injury score (Soy; 1,5-dimethyl-6-thioxo-3-(...)-1,3,5-triazinane-2,4-dione 25 g ai/ha, amino acid substitution F420L, SEQ ID NO 2)?
A: The injury score was 9 and 1 and 3 and 4 and 5.

Q: What about the injury score (Soy; 1,5-dimethyl-6-thioxo-3-(...)-1,3,5-triazinane-2,4-dione 25 g ai/ha, amino acid substitution F420M, SEQ ID NO 2) of the same molecule?
A: Its injury score is 4 and 1 and 5 and 8.

Q: What about the injury score (Soy; 1,5-dimethyl-6-thioxo-3-(...)-1,3,5-triazinane-2,4-dione 25 g ai/ha, amino acid substitution L369D, F392V, SEQ ID NO 40) of the same molecule?
A: The injury score was 9 and 8 and 6 and 7 and 4.

Q: And the injury score (Soy; 1,5-dimethyl-6-thioxo-3-(...)-1,3,5-triazinane-2,4-dione 25 g ai/ha, amino acid substitution L397D, F420V, SEQ ID NO 2)?
A: Its injury score is 5.

Q: What about the injury score (Soy; 1,5-dimethyl-6-thioxo-3-(...)-1,3,5-triazinane-2,4-dione 25 g ai/ha, amino acid substitution L397D, SEQ ID NO 2) of the same molecule?
A: Its injury score is 8 and 4 and 5.

Q: What about the injury score (Soy; 1,5-dimethyl-6-thioxo-3-(...)-1,3,5-triazinane-2,4-dione 25 g ai/ha, amino acid substitution L397E, F420M, SEQ ID NO 2) of the same molecule?
A: The injury score was 2 and 1 and 0.

Q: And the injury score (Soy; 1,5-dimethyl-6-thioxo-3-(...)-1,3,5-triazinane-2,4-dione 25 g ai/ha, amino acid substitution L397E, SEQ ID NO 2)?
A: The injury score was 5 and 8 and 6 and 7.

Q: And the injury score (Soy; 1,5-dimethyl-6-thioxo-3-(...)-1,3,5-triazinane-2,4-dione 25 g ai/ha, amino acid substitution L397Q, F420M, SEQ ID NO 2)?
A: Its injury score is 3 and 7 and 2 and 0 and 6.

Q: And the injury score (Soy; 1,5-dimethyl-6-thioxo-3-(...)-1,3,5-triazinane-2,4-dione 25 g ai/ha, amino acid substitution L397Q, F420V, SEQ ID NO 2)?
A: The injury score was 4 and 6.

Q: And the injury score (Soy; 1,5-dimethyl-6-thioxo-3-(...)-1,3,5-triazinane-2,4-dione 25 g ai/ha, amino acid substitution L397Q, SEQ ID NO 2)?
A: The injury score was 9.

Q: And the injury score (Soy; 1,5-dimethyl-6-thioxo-3-(...)-1,3,5-triazinane-2,4-dione 25 g ai/ha, amino acid substitution none, SEQ ID NO 2)?
A: The injury score was 5 and 7 and 6 and 8.

Q: What about the injury score (Soy; 1,5-dimethyl-6-thioxo-3-(...)-1,3,5-triazinane-2,4-dione 25 g ai/ha, amino acid substitution none, SEQ ID NO 40) of the same molecule?
A: The injury score was 9 and 6 and 7 and 8.

Q: What about the injury score (Soy; 1,5-dimethyl-6-thioxo-3-(...)-1,3,5-triazinane-2,4-dione 50 g ai/ha, amino acid substitution F420L, SEQ ID NO 2) of the same molecule?
A: Its injury score is 6.

Q: What about the injury score (Soy; 1,5-dimethyl-6-thioxo-3-(...)-1,3,5-triazinane-2,4-dione 50 g ai/ha, amino acid substitution F420M, SEQ ID NO 2) of the same molecule?
A: The injury score was 3 and 4 and 2 and 5 and 9.

Q: And the injury score (Soy; 1,5-dimethyl-6-thioxo-3-(...)-1,3,5-triazinane-2,4-dione 50 g ai/ha, amino acid substitution L369D, F392V, SEQ ID NO 40)?
A: The injury score was 8 and 7.

Q: What about the injury score (Soy; 1,5-dimethyl-6-thioxo-3-(...)-1,3,5-triazinane-2,4-dione 50 g ai/ha, amino acid substitution L397D, F420V, SEQ ID NO 2) of the same molecule?
A: The injury score was 4.

Q: And the injury score (Soy; 1,5-dimethyl-6-thioxo-3-(...)-1,3,5-triazinane-2,4-dione 50 g ai/ha, amino acid substitution L397D, SEQ ID NO 2)?
A: Its injury score is 9 and 5 and 8 and 4 and 6.

Q: And the injury score (Soy; 1,5-dimethyl-6-thioxo-3-(...)-1,3,5-triazinane-2,4-dione 50 g ai/ha, amino acid substitution L397E, F420M, SEQ ID NO 2)?
A: Its injury score is 2 and 1.

Q: What about the injury score (Soy; 1,5-dimethyl-6-thioxo-3-(...)-1,3,5-triazinane-2,4-dione 50 g ai/ha, amino acid substitution L397Q, F420M, SEQ ID NO 2) of the same molecule?
A: The injury score was 2 and 7 and 3 and 4 and 6 and 5 and 1.

Q: And the injury score (Soy; 1,5-dimethyl-6-thioxo-3-(...)-1,3,5-triazinane-2,4-dione 50 g ai/ha, amino acid substitution L397Q, F420V, SEQ ID NO 2)?
A: Its injury score is 5 and 7.

Q: What about the injury score (Soy; 1,5-dimethyl-6-thioxo-3-(...)-1,3,5-triazinane-2,4-dione 75 g ai/ha, amino acid substitution L397E, F420M, SEQ ID NO 2) of the same molecule?
A: The injury score was 2 and 3 and 1.

Q: What about the injury score (Soy; 1,5-dimethyl-6-thioxo-3-(...)-1,3,5-triazinane-2,4-dione 75 g ai/ha, amino acid substitution L397Q, F420M, SEQ ID NO 2) of the same molecule?
A: The injury score was 3 and 7 and 8 and 4 and 5 and 6 and 2.

Q: What about the injury score (Soy; 1,5-dimethyl-6-thioxo-3-(...)-1,3,5-triazinane-2,4-dione 75 g ai/ha, amino acid substitution L397Q, F420V, SEQ ID NO 2) of the same molecule?
A: Its injury score is 5 and 7.

Q: What about the “growth of mutagenized cells plated on solid medium containing the herbicide” value ([1]; 1×10^−7 M in solid medium, FIG. 2B) of the same molecule?
A: The value was “susceptible cells do not grow”.

Q: What about the “IC50 of mutagenized cells (strain 17) compared to Wild-type cells” value ([1]; dose-response curve, FIG. 3B versus FIG. 3A) of the same molecule?
A: The value was “much lower IC50”.

Q: What about the “Injury Rating 0-100% (0 = no injury, 100 = total control)” value ([2]; 75 g/Ha + 1% MSO, 7 DAT, Line 1) of the same molecule?
A: Its value is 98%.

Q: And the “Injury Rating 0-100% (0 = no injury, 100 = total control)” value ([2]; 75 g/Ha + 1% MSO, 7 DAT, Line 2)?
A: Its value is 100%.

Q: What about the “Injury Rating 0-100% (0 = no injury, 100 = total control)” value ([2]; 75 g/Ha + 1% MSO, 7 DAT, Line 3) of the same molecule?
A: Its value is 80%.

Q: What about the “Injury Rating 0-100% (0 = no injury, 100 = total control)” value ([2]; 75 g/Ha + 1% MSO, 19 DAT, Line 1) of the same molecule?
A: Its value is 95%.

Q: What about the “Injury Rating 0-100% (0 = no injury, 100 = total control)” value ([2]; 75 g/Ha + 1% MSO, 19 DAT, Line 2) of the same molecule?
A: Its value is 100%.

Q: And the “Injury Rating 0-100% (0 = no injury, 100 = total control)” value ([2]; 75 g/Ha + 1% MSO, 19 DAT, Line 3)?
A: The value was 95%.

Q: What about the “Injury Rating 0-100% (0 = no injury, 100 = total control)” value ([2]; 150 g/Ha + 1% MSO, 7 DAT, Line 1) of the same molecule?
A: The value was 30%.

Q: What about the “Injury Rating 0-100% (0 = no injury, 100 = total control)” value ([2]; 150 g/Ha + 1% MSO, 7 DAT, Line 2) of the same molecule?
A: Its value is 98%.

Q: What about the “Injury Rating 0-100% (0 = no injury, 100 = total control)” value ([2]; 150 g/Ha + 1% MSO, 7 DAT, Line 3) of the same molecule?
A: The value was 98%.

Q: And the “Injury Rating 0-100% (0 = no injury, 100 = total control)” value ([2]; 150 g/Ha + 1% MSO, 19 DAT, Line 1)?
A: Its value is 65%.

Q: And the “Injury Rating 0-100% (0 = no injury, 100 = total control)” value ([2]; 150 g/Ha + 1% MSO, 19 DAT, Line 2)?
A: Its value is 100%.

Q: What about the “Injury Rating 0-100% (0 = no injury, 100 = total control)” value ([2]; 150 g/Ha + 1% MSO, 19 DAT, Line 3) of the same molecule?
A: Its value is 100%.

Q: And the “Injury Rating 0-100% (0 = no injury, 100 = total control)” value ([2]; 300 g/Ha + 1% MSO, 7 DAT, Line 1)?
A: Its value is 100%.

Q: And the “Injury Rating 0-100% (0 = no injury, 100 = total control)” value ([2]; 300 g/Ha + 1% MSO, 7 DAT, Line 2)?
A: Its value is 30%.

Q: And the “Injury Rating 0-100% (0 = no injury, 100 = total control)” value ([2]; 300 g/Ha + 1% MSO, 7 DAT, Line 3)?
A: Its value is 35%.

Q: What about the “Injury Rating 0-100% (0 = no injury, 100 = total control)” value ([2]; 300 g/Ha + 1% MSO, 19 DAT, Line 1) of the same molecule?
A: The value was 98%.

Q: And the “Injury Rating 0-100% (0 = no injury, 100 = total control)” value ([2]; 300 g/Ha + 1% MSO, 19 DAT, Line 2)?
A: Its value is 60%.

Q: And the “Injury Rating 0-100% (0 = no injury, 100 = total control)” value ([2]; 300 g/Ha + 1% MSO, 19 DAT, Line 3)?
A: Its value is 80%.
